Assay results as given in ChEMBL document CHEMBL5120764, “Isarubrolone C Promotes Autophagic Degradation of Virus Proteins via Activating ATG10S in HepG2 Cells” (J Nat Prod, 2022).
Calls of active or inactive are those of the source.

Experiments:
Format in all cases: functional, cell-based
HepG2 [1] = experiment: Effect on HCV-NS5B degradation in human HepG2 cells transfected with HCV sub-replicon at 10 uM pretreated with proteosome inhibitor MG132 for 12 hrs followed by compound addition and measured after 24 hrs by western blot analysis
HepG2 [2] = experiment: Effect on HBx degradation in human HepG2 cells transfected with HBx at 10 uM pretreated with proteosome inhibitor MG132 for 12 hrs followed by compound addition and measured after 24 hrs by western blot analysis
HepG2 [3] = experiment: Effect on LC3B-II protein degradation in human HepG2 cells at 10 uM pretreated with proteosome inhibitor MG132 for 12 hrs followed by compound addition and measured after 24 hrs by western blot analysis
HepG2 [4] = experiment: Effect on P62 degradation in human HepG2 cells at 10 uM pretreated with proteosome inhibitor MG132 for 12 hrs followed by compound addition and measured after 24 hrs by western blot analysis
HepG2 [5] = experiment: Induction of autophagy in human HepG2 cells transfected with HCV subgenomic replicon assessed as HCV-NS5B/LAMP2 combination at 10 uM incubated for 24 hrs in presence of anti-LAMP2 antibodies by co-immunoprecipitation assay
HepG2 [6] = experiment: Induction of autophagy in human HepG2 cells transfected with HCV subgenomic replicon assessed as HCV-CORE/LAMP2 combination at 10 uM incubated for 24 hrs in presence of anti-LAMP2 antibodies by co-immunoprecipitation assay
HepG2 [7] = experiment: Induction of autophagy in human HepG2 cells transfected with HCV subgenomic replicon assessed as HCV-CORE/LC3B combination at 10 uM incubated for 24 hrs in presence of anti-LAMP2 antibodies by co-immunoprecipitation assay
HepG2 [8] = experiment: Induction of autophagy in human HepG2 cells transfected with HCV subgenomic replicon assessed as HCV-CORE/P62 combination at 10 uM incubated for 24 hrs in presence of anti-LAMP2 antibodies by co-immunoprecipitation assay
HepG2 [9] = experiment: Upregulation of ATG10/ATG10S mRNA level in human HepG2 cells transfected with HCV sub-replicon upto 10 uM by RT-PCR analysis; conditions: DDE = dose-dependent effect
HepG2 [10] = experiment: Downregulation of HBVx in human HepG2 cells transfected with HBVx upto 10 uM incubated for 24 hrs by western blot analysis
HepG2 [11] = experiment: Upregulation of endogenous ATG10S activated co-localisation of HBx with LC3B in human HepG2 cells co-transfected with HBx and ATG10-sMO by cellular immunofluorescence assay
HepG2 [12] = experiment: Upregulation of endogenous ATG10S activated co-localisation of HIV-RT with LC3B in human HepG2 cells co-transfected with HIV-RT and ATG10-sMO by cellular immunofluorescence assay
HepG2 [13] = experiment: Upregulation of endogenous ATG10S activated co-localisation of HIV-RT with LC3B in human HepG2 cells co-transfected with HIV-RT and ATG10-misMO by cellular immunofluorescence assay
HepG2 [14] = experiment: Upregulation of endogenous ATG10S activated co-localisation of HIV-RT with LAMP2 in human HepG2 cells co-transfected with HIV-RT and ATG10-sMO by cellular immunofluorescence assay
HepG2 [15] = experiment: Upregulation of endogenous ATG10S activated co-localisation of ZIKV-NS5 with LAMP2 in human HepG2 cells co-transfected with ZIKV-NS5 and ATG10-misMO by cellular immunofluorescence assay
HepG2 [16] = experiment: Upregulation of P62 in human HepG2 cells transfected with HCV sub-replicon and gene knockdown by IL28A morpholinos at 10 uM incubated for 24 hrs by western blot analysis
HepG2 [17] = experiment: Induction of autophagy in human HepG2 cells co-transfected with ATG10 or ATG10S assessed as increase in ATG10/ATG10S protein level upto 10 uM and measured after 6 hrs by western blot analysis; conditions: DDE = dose-dependent effect
HepG2 [18] = experiment: Induction of autophagy in human HepG2 cells transfected with HBx assessed as increase in HBx-LC3B interaction level at 10 uM incubated for 24 hrs in presence of anti-Flag antibodies by co-immunoprecipitation assay
HepG2 [19] = experiment: Induction of autophagy in human HepG2 cells transfected with HBx assessed as increase in HBx-LAMP2 interaction level at 10 uM incubated for 24 hrs in presence of anti-Flag antibodies by co-immunoprecipitation assay
HepG2 [20] = experiment: Induction of autophagy in human HepG2 cells transfected with ZIKV-NS5 assessed as increase in ZIKV-NS5-P62 interaction level at 10 uM incubated for 24 hrs in presence of anti-Flag antibodies by co-immunoprecipitation assay
HepG2 [21] = experiment: Induction of autophagy in human HepG2 cells transfected with ZIKV-NS5 assessed as increase in ZIKV-NS5-LAMP2 interaction level at 10 uM incubated for 24 hrs in presence of anti-Flag antibodies by co-immunoprecipitation assay
HepG2 [22] = experiment: Induction of autophagy in human HepG2 cells transfected with HIV-RT assessed as increase in HIV-RT-LC3B interaction level at 10 uM incubated for 24 hrs in presence of anti-Flag antibodies by co-immunoprecipitation assay
HepG2 [23] = experiment: Induction of autophagy in human HepG2 cells transfected with HIV-RT assessed as increase in HIV-RT-P62 interaction level at 10 uM incubated for 24 hrs in presence of anti-Flag antibodies by co-immunoprecipitation assay
HepG2 [24] = experiment: Induction of autophagy in human HepG2 cells transfected with HCV subgenomic replicon assessed as HCV-CORE/P62 combination at 10 uM incubated for 24 hrs in presence of anti-LC3B antibodies by co-immunoprecipitation assay
HepG2 [25] = experiment: Induction of autophagy in human HepG2 cells transfected with HCV subgenomic replicon assessed as HCV-CORE/LAMP2 combination at 10 uM incubated for 24 hrs in presence of anti-LC3B antibodies by co-immunoprecipitation assay
HepG2 [26] = experiment: Upregulation of ATG10/ATG10S mRNA level in human HepG2 cells transfected with HBx upto 10 uM by RT-PCR analysis; conditions: DDE = dose-dependent effect
HepG2 [27] = experiment: Upregulation of HBx in human HepG2 cells transfected with HBx and gene knockdown by IL28A morpholinos at 10 uM incubated for 24 hrs by western blot analysis
HepG2 [28] = experiment: Upregulation of P62 in human HepG2 cells transfected with ZIKV-NS5 and gene knockdown by IL28A morpholinos at 10 uM incubated for 24 hrs by western blot analysis
HepG2 [29] = experiment: Upregulation of ZIKV-NS5 in human HepG2 cells transfected with ZIKV-NS5 and gene knockdown by IL28A morpholinos at 10 uM incubated for 24 hrs by western blot analysis
HepG2 [30] = experiment: Upregulation of LC3B in human HepG2 cells transfected with HIV-RT and gene knockdown by IL28A morpholinos at 10 uM incubated for 24 hrs by western blot analysis
HepG2 [31] = experiment: Induction of autophagy in human HepG2 cells transfected with HIV-RT and gene knockdown by IL28A morpholinos assessed as LC3B and LAMP2 interaction at 10 uM incubated for 24 hrs in presence of anti-LC3B antibodies by co-immunoprecipitation assay

Measured: Activity

CC[C@@H](O)c1nc(C)cc2c1C(=O)c1cc(=O)c3c(c(O)c1-2)O[C@@H]1O[C@H](C)[C@@H](OC)[C@@H](O)[C@]31O
active: HepG2 [1] | HepG2 [2] | HepG2 [3] | HepG2 [4] | HepG2 [5] | HepG2 [6] | HepG2 [7] | HepG2 [8] | HepG2 [9] Dde | HepG2 [10] | HepG2 [11] | HepG2 [12] | HepG2 [13] | HepG2 [14] | HepG2 [15] | HepG2 [16] | HepG2 [17] Dde | HepG2 [18] | HepG2 [19] | HepG2 [20] | HepG2 [21] | HepG2 [22] | HepG2 [23] | HepG2 [24] | HepG2 [25] | HepG2 [26] Dde | HepG2 [27] | HepG2 [28] | HepG2 [29] | HepG2 [30] | HepG2 [31]
